Laboratory results: article PMC8321240, “Cell-Type-Specific High Throughput Toxicity Testing in Human Midbrain Organoids” (Frontiers in Molecular Neuroscience, 2021)
Entries after “also recorded” stand apart in the source; their conditions may differ.

What was measured:
[1] = test system: TH+ dopaminergic and Map2+ general neurons in AMOs; experiment: Primary cell-type-specific toxicity screen (whole-mount TH/Map2 staining, high content imaging); format: cell-based, human; settings: approx. 100 μM, 48 h + 6 days, shared between both AMO lines, padj < 0.05
Description: All processing steps were conducted in an HTS-compatible automated liquid handling system (ALHS, a Biomek FXP liquid handling station). To quantify different cellular subpopulations within the AMOs, we employed our previously described (Renner et al., [2020], [2021b]) ALHS-compatible workflow for combined whole-mount staining and clearing, with minor modifications. We fixed the AMOs with 4% PFA (VWR) for 10–15 min and stained the entire aggregates with primary and secondary antibodies for 6 days each. The antibodies used in this study were as follows. Primary: mouse anti-Map2 (1:1,000, Merck Millipore, cat#: MAB3418) and rabbit anti-TH (1:500, Abcam, cat#: ab112). Secondary: donkey anti-mouse IgG, Alexa Fluor 488 conjugated (1:1,000, Thermo Fisher, cat#: A-21202) and donkey anti-rabbit IgG, Alexa Fluor 647 conjugated (1:1,000, Thermo Fisher, cat#: A-31573). The antibodies were diluted in blocking and permeabilization solution consisting of 6% BSA, 0.5% Triton-X 100 (Roth), 0.1% (w/v) sodium azide (Sigma-Aldrich) in PBS (Sigma-Aldrich) and immediately added after fixation following a triple rinse with PBS. We renewed the antibody solutions once after three days. As a nuclear counter stain, we added DAPI (1 μg/ml, Sigma-Aldrich) to the solution containing the secondary antibodies. Between primary and secondary antibody application and after finishing the secondary antibody incubation, we washed the samples overnight with 0.1% Triton X-100 in PBS, with a total of five exchanges of the washing solution. […]
We prepared and treated the AMOs with the compounds as described for the primary viability screen. […] We performed automated image acquisition of entire 96-well plates on an Operetta high content imager (Perkin Elmer) and analyzed images in the Harmony 4.1 software and/or Columbus version 2.6.0 as previously described (Renner et al., [2020]), with adjustments to account for the individual properties of the staining and samples. […]

[2] = test system: TH+ dopaminergic and Map2+ general neurons in AMOs; experiment: Dose-response analysis, TH and Map2 content by high content imaging; format: cell-based, human; settings: 48 h + 6 days; for Map2 content (general neurons) / TH content (dopaminergic neurons): 0.01-1,000 μM (rotenone up to 100 μM), both AMO lines; for TH levels compared to Map2 levels: dose-response, padj < 0.05
Description: All processing steps were conducted in an HTS-compatible automated liquid handling system (ALHS, a Biomek FXP liquid handling station). To quantify different cellular subpopulations within the AMOs, we employed our previously described (Renner et al., [2020], [2021b]) ALHS-compatible workflow for combined whole-mount staining and clearing, with minor modifications. We fixed the AMOs with 4% PFA (VWR) for 10–15 min and stained the entire aggregates with primary and secondary antibodies for 6 days each. The antibodies used in this study were as follows. Primary: mouse anti-Map2 (1:1,000, Merck Millipore, cat#: MAB3418) and rabbit anti-TH (1:500, Abcam, cat#: ab112). Secondary: donkey anti-mouse IgG, Alexa Fluor 488 conjugated (1:1,000, Thermo Fisher, cat#: A-21202) and donkey anti-rabbit IgG, Alexa Fluor 647 conjugated (1:1,000, Thermo Fisher, cat#: A-31573). The antibodies were diluted in blocking and permeabilization solution consisting of 6% BSA, 0.5% Triton-X 100 (Roth), 0.1% (w/v) sodium azide (Sigma-Aldrich) in PBS (Sigma-Aldrich) and immediately added after fixation following a triple rinse with PBS. We renewed the antibody solutions once after three days. As a nuclear counter stain, we added DAPI (1 μg/ml, Sigma-Aldrich) to the solution containing the secondary antibodies. Between primary and secondary antibody application and after finishing the secondary antibody incubation, we washed the samples overnight with 0.1% Triton X-100 in PBS, with a total of five exchanges of the washing solution. After the whole-mount staining, we performed BABB-based tissue clearing (Dent et al., [1989]) to allow image acquisition with single-cell resolution of the entire aggregates. For this purpose, we first dehydrated the AMOs via a stepwise methanol (Roth) series (25%, 50%, 70%, 90%, and 100%, each for 15 min). For clearing and imaging, we transferred them to organic solvent-resistant cyclo-olefin 96-well flat-bottom plates (“Screenstar”, Greiner Bio-One). Finally, we incubated the samples for 30 min in 1:1 (v/v) methanol/BABB (BABB consisted of benzyl alcohol (Sigma-Aldrich) and benzyl benzoate (Sigma-Aldrich) at a 1:1 (v/v) ratio) and then kept them in 100% BABB in the dark for storage and subsequent automated high content confocal fluorescent analysis.
We prepared and treated the AMOs with the compounds as described for the primary viability screen. On day 50, after 48 h of compound incubation, we replaced the medium with standard AMO medium and maintained the AMOs for 6 additional days under standard culture conditions. This additional time allows the cells killed by the compounds to be cleared from the aggregates. After the 6 days, we fixed the organoids with 4% PFA, whole-mount-stained them for TH and Map2, and tissue-cleared them as described above. To achieve uniform aggregate positioning within the wells before imaging, we tilted the plates off the horizontal plane at 60 degrees for a minimum of 5 min. We performed automated image acquisition of entire 96-well plates on an Operetta high content imager (Perkin Elmer) and analyzed images in the Harmony 4.1 software and/or Columbus version 2.6.0 as previously described (Renner et al., [2020]), with adjustments to account for the individual properties of the staining and samples. We acquired three medial planes for each organoid, spaced 36.6 μm apart to avoid double-sampling individual morphological features. For the analysis, we defined the organoid region in each image by summing all channels, removed small localized features with a median filter (10 px), and identified putative organoids/regions of interest (ROIs) with the “find image region” function. To identify bona fide AMOs and exclude image artifacts and dust, we selected the ROIs with an area >9,000 μm^2, roundness >0.4, and mean DAPI intensity >190 arbitrary brightness units (abu).

[3] = test system: automated midbrain organoids (AMOs); experiment: Dose-response analysis, ATP-based overall AMO viability; format: cell-based, human; settings: 48 h + 6 days; for overall toxicity in the dose-response experiments: 0.01-1,000 μM, viability, Map2 and TH readouts; for viability: 0.01-1,000 μM (rotenone up to 100 μM), both AMO lines
Description: AMOs were cultured as described above for 47 days. On day 47, we exchanged their medium to tox medium (TM), initially without the addition of any compounds. […] For each compound, we included n = 8 controls per compound treated with the corresponding solvent at an amount equivalent to the highest compound concentration. To assess viability and cell type-specific toxicity in parallel and under the same conditions, we treated all samples with the compounds for 48 h, then exchanged their medium to standard culture medium without compounds and maintained them for an additional 6 days before analysis to allow breakdown and removal of cellular debris. Organoid viability and cell type-specific toxicity were analyzed as described for the primary screens. Here, we acquired five confocal planes spaced 36.6 μm apart in our Operetta high content imager. The image analysis of the AMOs for cell type-specific toxicity assessment required minor adjustments to account for the individual properties of the staining. […] For Map2, we performed Gaussian smoothing with a width of 10 px and omitted the additional sliding parabola filter. The other steps were performed as outlined for the primary cell-type-specific toxicity screen. […] In detail: The dose-response series, including the individual solvent controls, was performed for every compound on a separate 96-well plate of AMOs with initially n = 8 organoids per concentration. […] Data processing, including normalizations, was performed for each individual compound/plate as outlined above for the primary screens. Significant differences between the Map2 and TH content were also determined in GraphPad Prism as described for the primary screen and with the same parameters (multiple comparisons were performed for the different concentrations instead of compounds).

[4] = test system: automated midbrain organoids (AMOs); experiment: Viability of 3D AMOs (CellTiter-Glo 3D) in the 2D vs 3D comparison; format: cell-based, human; settings: for IC50: Homo sapiens, 48 h exposure from day 50
Description: We cultured AMOs for 47 days in our automated system as described above. On day 47, we exchanged the organoid medium to a minimal tox medium (TM, consisting of DMEM/F-12 with 1% N2 supplement and 1% penicillin/streptomycin/glutamine) to reduce possible interference from antioxidants in the B27 media supplement. The next day, we treated the AMOs with the compounds from the library at a concentration of 100 μM in TM with some deviations due to solubility (see Supplementary Table 1 for a complete list of compounds including their final concentrations in the screen). DMSO control samples contained 0.5% (v/v) DMSO, which is equivalent to the amount of solvent in the samples that received compound treatment. After 48 h of incubation with the compounds, we either directly processed the organoids for the 48-h time point or renewed the compounds in TM once to achieve 96 h of incubation. Following either 48 or 96 h of compound incubation, we used the CellTiter-Glo 3D cell viability assay (Promega) to measure the viability of individual organoids, as previously described (Renner et al., [2020]). Briefly, the 96-well plates of AMOs and the reagents were brought to room temperature for 30 min. We adjusted the media volume of each well to 55 μl and added an equal volume (55 μl) of the CellTiter-Glo 3D reagent. Next, the samples were shaken on a Thermomixer (Eppendorf) at 900 rpm for 5 min and then incubated for 25 min at room temperature while protected from light. To minimize signal cross-talk between adjacent wells, we transferred the contents of the clear 96-well culture plates to white/opaque 384-well Lumitrac plates (Greiner) with two technical replicates (20 μl each) per sample, after the incubation. We recorded the luminescence immediately after the transfer using a Synergy Mx plate reader (BioTek). We outputted the results to Microsoft Excel for reformatting and then transferred them to GraphPad Prism v9.0.1 (Graphpad Software, Inc.) for plotting and statistical analysis.
To compare the toxic effects of compounds on AMOs and 2D-cultured midbrain dopaminergic neurons, we seeded and cultured both in parallel and generated them from the same smNPC starting cell population. For 2D dopaminergic neuron differentiation, smNPCs were seeded in 1% (v/v in KO-DMEM/F-12) Matrigel-coated 6-well plates and standard smNPC medium, following digestion by accutase as described above. From day 2 onwards, they were treated identically with the AMOs (i.e., they received the same media at the same timepoints). To work with the 2D dopaminergic neurons in a screening setting (and have the same plate format as the AMOs), we reseeded them to flat-bottom 96-well plates (“μCLEAR”, black, Greiner) at a density of 70,000 cells/well on day 48. On day 49, the medium of both 2D mDA neurons and 3D AMOs was exchanged to tox medium. The next day, we treated them with different concentrations (0.01, 0.1, 1, 10, 50, 100, 200, 500, and 1,000 μM; controls received the corresponding solvent at an amount equivalent to the highest compound concentration; n = 6 per concentration) of the compounds lindane (Sigma-Aldrich, in ethanol) and 6-hydroxydopamine hydrochloride (Sigma Aldrich, in DMSO) in tox medium. After 48 h of incubation, we measured the samples’ viability. For the AMOs, we used the CellTiter-Glo 3D cell viability assay as described above. We measured the 2D mDA neuron viability with the CellTiter-Glo 2.0 cell viability assay (Promega) according to the manufacturer’s instructions. In short, we brought the sample plates and reagents to room temperature for 30 min. We adjusted the media volume of the samples to 50 μl and added an equal volume (50 μl) of the CellTiter-Glo 2.0 reagent. We let the plate shake for 2 min at 900 rpm on a Thermomixer and then incubated them for 10 min at room temperature and protected from light. Immediately afterward, we measured the luminescence on a Synergy Mx plate reader. […]

[5] = test system: 2D-cultured midbrain dopaminergic (mDA) neurons; experiment: Viability of 2D-cultured mDA neurons (CellTiter-Glo 2.0) in the 2D vs 3D comparison; format: cell-based; settings: Homo sapiens, Neuron, 2D mDA neurons, 48 h exposure from day 50
Description: To compare the toxic effects of compounds on AMOs and 2D-cultured midbrain dopaminergic neurons, we seeded and cultured both in parallel and generated them from the same smNPC starting cell population. For 2D dopaminergic neuron differentiation, smNPCs were seeded in 1% (v/v in KO-DMEM/F-12) Matrigel-coated 6-well plates and standard smNPC medium, following digestion by accutase as described above. From day 2 onwards, they were treated identically with the AMOs (i.e., they received the same media at the same timepoints). To work with the 2D dopaminergic neurons in a screening setting (and have the same plate format as the AMOs), we reseeded them to flat-bottom 96-well plates (“μCLEAR”, black, Greiner) at a density of 70,000 cells/well on day 48. On day 49, the medium of both 2D mDA neurons and 3D AMOs was exchanged to tox medium. The next day, we treated them with different concentrations (0.01, 0.1, 1, 10, 50, 100, 200, 500, and 1,000 μM; controls received the corresponding solvent at an amount equivalent to the highest compound concentration; n = 6 per concentration) of the compounds lindane (Sigma-Aldrich, in ethanol) and 6-hydroxydopamine hydrochloride (Sigma Aldrich, in DMSO) in tox medium. After 48 h of incubation, we measured the samples’ viability. For the AMOs, we used the CellTiter-Glo 3D cell viability assay as described above. We measured the 2D mDA neuron viability with the CellTiter-Glo 2.0 cell viability assay (Promega) according to the manufacturer’s instructions. In short, we brought the sample plates and reagents to room temperature for 30 min. We adjusted the media volume of the samples to 50 μl and added an equal volume (50 μl) of the CellTiter-Glo 2.0 reagent. We let the plate shake for 2 min at 900 rpm on a Thermomixer and then incubated them for 10 min at room temperature and protected from light. Immediately afterward, we measured the luminescence on a Synergy Mx plate reader. We outputted the results to Microsoft Excel and GraphPad Prism v9.0.1 for reformatting, plotting, and analysis. Data processing was performed as outlined for the CellTiter-Glo 3D-based viability assay above, except for the averaging of technical replicates, as measurements were performed directly in the culture plate without additional technical replicates.
All other data analysis steps including the statistical analysis to identify significant differences in toxicity between 2D and 3D (via multiple unpaired t-tests with the same parameters as above, corrected for using the Bonferroni-Dunn method, and considering padj <0.05 as significant), as well as dose-response curve fitting, were performed as described in detail above. The IC50 values were taken from the same regression/analysis as the dose-response curves.

[6] = test system: automated midbrain organoids (AMOs); experiment: Primary organoid viability screen (ATP-based CellTiter-Glo 3D); format: cell-based, human; settings: approx. 100 μM, 48 or 96 h, two AMO lines
Description: We cultured AMOs for 47 days in our automated system as described above. On day 47, we exchanged the organoid medium to a minimal tox medium (TM, consisting of DMEM/F-12 with 1% N2 supplement and 1% penicillin/streptomycin/glutamine) to reduce possible interference from antioxidants in the B27 media supplement. The next day, we treated the AMOs with the compounds from the library at a concentration of 100 μM in TM with some deviations due to solubility (see Supplementary Table 1 for a complete list of compounds including their final concentrations in the screen). DMSO control samples contained 0.5% (v/v) DMSO, which is equivalent to the amount of solvent in the samples that received compound treatment. After 48 h of incubation with the compounds, we either directly processed the organoids for the 48-h time point or renewed the compounds in TM once to achieve 96 h of incubation. […] We recorded the luminescence immediately after the transfer using a Synergy Mx plate reader (BioTek). […]
In detail: All compounds including their controls were arrayed on a single 96-well plate (see Supplementary Table 1 for well positions), and replicated across three plates for a total of n = 3 replicates per condition (except AMO line 2 at 48 h n = 2). […] During our analysis, we first averaged the two technical replicates from the luminescence measurement in Microsoft Excel, yielding one averaged luminescence value for each well of the original 96-well AMO plates. Then, we normalized the luminescence detected in each well to the mean luminescence of the four DMSO controls of the same plate to get a relative organoid viability value. Normalization was performed separately for each plate to account for and correct for potential differences during the luminescence measurements. […] We further assessed the homogeneity of the AMOs by calculating the coefficient of variation (CV) for the relative viabilities of the DMSO controls (i.e., we divided the standard deviations by the corresponding means and averaged the resulting CV values for the DMSO controls). […]

Compound | significant difference in reduction between TH and Map2 (dopaminergic neuron-specific toxicity) [1] | Map2 content (general neurons) [2] | TH content (dopaminergic neurons) [2] | TH levels compared to Map2 levels [2] | other results
[CH3][Hg][Cl] [methyl mercuric (II) chloride] | statistically significant difference in reduction between TH and Map2 |  |  |  | 
CC(=O)Oc1ccccc1C(=O)O [ASS, acetylsalicylic acid, reference compound] |  | no impact | no impact |  | overall toxicity in the dose-response experiments [3]: no significant changes at any of the tested concentrations; also recorded: non-toxic across all tested concentrations
COc1ccc2cc3[n+](cc2c1OC)CCc1cc2c(cc1-3)OCO2 [BC, berberine chloride] | statistically significant difference in reduction between TH and Map2 | strongly reduced | strongly reduced | significantly reduced TH levels compared to Map2 over a broad range of concentrations | viability [3]: strongly reduced
Cl.NCCc1cc(O)c(O)cc1O [6OHDA, 6-hydroxydopamine hydrochloride, reference compound] |  |  |  |  | IC50 ([4]; AMO line 1, 3D): 315 µM; IC50 ([4]; AMO line 2, 3D): 269 µM; toxicity in 3D AMOs compared with 2D-cultured dopaminergic neurons ([4]; both cell lines, 48 h, 0.01-1,000 μM, padj < 0.05): significantly stronger toxic effect in 2D than 3D; IC50 ([5]; AMO line 1 cell line): 44.2 µM; IC50 ([5]; AMO line 2 cell line): 65 µM
CC(C)(c1cc(Br)c(O)c(Br)c1)c1cc(Br)c(O)c(Br)c1 [TBBPA, 3,3′,5,5′-tetrabromobisphenol A] | statistically significant difference in reduction between TH and Map2 | strongly reduced | strongly reduced | significantly reduced TH levels compared to Map2 over a broad range of concentrations | viability [3]: strongly reduced
C=C(C)[C@H]1Cc2c(ccc3c2O[C@@H]2COc4cc(OC)c(OC)cc4[C@@H]2C3=O)O1 [rotenone, reference compound] |  |  |  | significantly reduced TH levels compared to Map2 over a broad range of concentrations | 
O=C1C2CC=CCC2C(=O)N1SC(Cl)(Cl)Cl (stereo not shown) [captan] |  | reduced | reduced | significantly reduced TH levels compared to Map2 over a broad range of concentrations | toxicity in the primary screens [6]: intermediate toxicity; overall toxicity in the dose-response experiments [3]: intermediate compared to ASS and the more toxic compounds
